The values below come from article PMC7822874, “Chemoprotective antimalarials identified through quantitative high-throughput screening of Plasmodium blood and liver stage parasites” (Scientific Reports, 2021).
Note: reference of the scale not given here.

The data set in a line: in vitro. As to conditions: human, hepg2-a16-cd81egfp cells, % viability.
As for `O[C@H]1[C@H]2c3cc4c(cc3CN3CCC(=C[C@@H]1O)[C@@H]23)OCO4` [NCGC00262562], the viability at 3 µM stood at 83.5%.
`CCOC(=O)c1sc2nc3c(SCCC#N)cc(C(=O)c4cc(F)ccc4O)cn3c(=O)c2c1C` [MLS000393119]: the viability at 3 µM was determined as 91.3%.
For the molecule `CC(C)Nc1ccc(Nc2ccnc3cc4ccccc4cc23)cc1` [MLS000766754], the viability at 3 µM was 83.9%.
As to `COc1ccc([C@@]2(C(C)C)ON(c3ccccc3C(F)(F)F)C2=O)cc1` [MLS002206606], the viability at 3 µM stood at 83.8%.
Turning to `CC1(C)Cc2ccccc2C2=NNC(=O)C2=N1` [MLS000709658], the viability at 3 µM came out at 94.5%.
The figure for `COc1ccc(-n2nc(C(=O)NCC(=O)N3CCN(c4ccccc4OC)CC3)c3ccccc3c2=O)c(OC)c1` [MLS000936211] is 90.4%; for `COc1ccc2[nH]c(C)c(CCN(Cc3cccs3)C(S)=Nc3ccccc3)c2c1` [MLS000529828] it is 86.8%; for `Cc1ccc(-c2c(C(=O)N/N=C/c3cccc(Cl)c3)nnn2-c2nonc2N)cc1` [MLS001139410] it is 92.2%.
On to `O=C1c2ccccc2-n2c1nc1ccccc1c2=O` [MLS001049121], for which the viability at 3 µM amounted to 81.6%.
Consider `COc1ccc(Nc2cc(C)nc(NCc3ccccc3)n2)cc1` [MLS000768693], for which the viability at 3 µM stood at 83%.
The figure for `CCN(CC)CCOC(=O)c1ccc(N/C=C(/C#N)c2nc(-c3ccc4c(c3)OCO4)cs2)cc1` [MLS000769346] is 100%; for `Cc1nn2c(c1-c1ccccc1-c1ccccc1)N(CC1CC1)CCC2` [NCGC00420435] it is 49.8%.
Take `O=C1C=C(c2cccc(CO)c2)C[C@@H](c2ccc(Cl)cc2)C1` [MLS002302575]: the viability at 3 µM is 102%.
The figure for `CC(C)(C)OC(=O)N1CCC(CC2CC(c3ccccc3)=NO2)(C(=O)NCc2ccccc2)CC1` (stereo not drawn) [MLS002174287] is 99.3%.
As for `O=C(Nc1ccc(S(=O)(=O)N2CCOCC2)cc1)c1cc(-c2cc(Cl)ccc2O)n[nH]1` [MLS000778989], the viability at 3 µM came to 73.1%.
The figure for `CCN(CC)c1ccc(NC(=O)COc2ccccc2C#N)cc1S(=O)(=O)Nc1ccccc1OC` [MLS000339599] is 97.1%; for `CCN(CC)CCN1C(=O)c2ccccc2NC1c1ccc(Br)cc1` (stereo not drawn) [MLS000723891] it is 87.8%; for `O=S1(=O)N(CCN2CC=C(c3c[nH]c4cc(F)ccc34)CC2)c2cccc3c2N1CCC3` [NCGC00015600] it is 76.3%.
The figure for `COc1ccccc1CNCC(O)Cn1c2ccccc2c2ccccc21` (stereo not drawn) [MLS000391556] is 92.6%.
`Cc1cc(Nc2ccc(Cl)cc2)nc(NCc2ccccc2)n1` [MLS000591025]: the viability at 3 µM came out at 87.8%.
`O=[S+]([O-])(c1ccc(Cl)cc1)N1CCN(C(=S)Nc2ccc(F)c(Cl)c2)CC1` [NCGC00345140]: the viability at 3 µM was 85.6%.
The figure for `COc1ccc2nc(N3CCN(C(=O)c4ccc([N+](=O)[O-])o4)CC3)sc2c1` [MLS001234236] is 89.3%; for `Cc1ccc(Nc2nnc(SCC(=O)c3ccc(O)cc3O)s2)cc1` [MLS001176347] it is 99.9%; for `CC(C)(C)N1C(=O)c2ccc(C(=O)Nc3ccc(-c4nc5ccccc5[nH]4)cc3)cc2C1=O` [MLS000567491] it is 104%.
The figure for `CC[C@]1(c2ccccc2OC)ON(c2ccccc2C(F)(F)F)C1=O` [MLS002206607] is 102%.
On to `CNc1ccc2oc(C[C@H]3O[C@@]4(CC[C@H]3C)O[C@H]([C@H](C)C(=O)c3ccc[nH]3)[C@H](C)C[C@H]4C)nc2c1C(=O)O` [MLS001056783], for which the viability at 3 µM worked out at 19.2%.
`CCOc1ccccc1NC(=O)Cn1c(-c2ccc(Cl)cc2)noc1=O` [MLS000529487]: the viability at 3 µM was 86.9%.
Regarding `O=C(Nc1ccc(C(F)(F)F)cc1)N1CCN(c2ccnc3cc(Cl)ccc23)CC1` [MLS000830170], the viability at 3 µM worked out at 90.8%.
The figure for `CCN(CC)CC(O)COc1ccccc1C(=O)CCc1ccccc1` (stereo not drawn) [MLS000107538] is 104%; for `Cc1ccc(NC2=C/C(=N\S(=O)(=O)c3cccs3)c3ccccc3C2=O)cc1C` [MLS000585841] it is 81.7%.
For `COc1cc(O)c(C(CCN2CCCCC2)c2ccc(N(C)C)cc2)c(OC)c1` (stereo not drawn) [MLS000879496], the viability at 3 µM turned out to be 92.4%.
The figure for `CC(C)(C)Nc1nc(NC(C)(C)C)nc(-n2ccnc2)n1` [MLS000044025] is 90.9%.
On to `COc1cnc(-c2ccccn2)nc1N(C)c1ccccc1` [MLS001166302], for which the viability at 3 µM stood at 90.7%.
With `CCOc1ccc(CCNC(=O)Nc2ccccc2)cc1OCC` [MLS001197603], the viability at 3 µM was 99.4%.
As to `COc1cc(NC(=O)c2cc([N+](=O)[O-])ccc2NC(=O)CNC2CCCCC2)cc(OC)c1` [MLS000950380], the viability at 3 µM amounted to 109%.
On to `C=CCNC(=S)N1CCN(c2ccc([N+](=O)[O-])cc2)CC1` [MLS000581348], for which the viability at 3 µM is 99.6%.
Then `COc1ccc(/C=N/Nc2cc(C)nc(-n3nc(C)cc3C)n2)c(OC)c1` [MLS000589396], with 91%; and `CC(NCc1ccccc1O)C12CC3CC(CC(C3)C1)C2` (stereo not drawn) [MLS001173343], with 97.5%.
The figure for `CCCc1c(CC)c(=N)c2ccccc2n1C` [MLS000080101] is 83.6%.
For the molecule `CCOc1ccccc1NC(C)C(=O)Nc1cc(C(F)(F)F)ccc1N1CCOCC1` (stereo not drawn) [MLS000336343], the viability at 3 µM is 99.6%.
Take `O=C(Nc1ccc(Br)cc1)c1ccc(F)c([S+](=O)([O-])NC2CCCCCC2)c1` [NCGC00139407]: the viability at 3 µM was found to be 78.6%.
As to `COc1ccc2cc3cc(C(=O)NCC4CCCO4)oc3nc2c1` (stereo not drawn) [MLS000091914], the viability at 3 µM is 106%.
As for `CCOc1cccc(CNCCc2c(C)[nH]c3ccc(OC(F)(F)F)cc23)c1O` [MLS001198351], the viability at 3 µM was 70.5%.
As to `N#Cc1c2c(c(NCc3ccco3)n3c1nc1ccccc13)CCC2` [MLS000109113], the viability at 3 µM stood at 97.7%.
For the molecule `CCCC(=O)NC(c1ccccc1OC)c1ccc2cccnc2c1O` (stereo not drawn) [MLS000715345], the viability at 3 µM amounted to 55.4%.
The figure for `CN1CCc2cccc3c2[C@@H]1Cc1ccc(O)c(O)c1-3` [NCGC00142462] is 93.3%.
As for `CN(C)CCCn1cnc2c(c1=N)C(c1ccccc1)c1ccc3ccccc3c1O2` (stereo not drawn) [MLS001216375], the viability at 3 µM turned out to be 106%.
The figure for `CCc1ccccc1OC[C@@H](O)CN[C@H]1CCCc2ccccc21` [MLS002172481] is 97.6%.
In the case of `CN([C@@H](Cc1ccc(OS(=O)(=O)c2cccc3cnccc23)cc1)C(=O)N1CCN(c2ccccc2)CC1)S(=O)(=O)c1cccc2cnccc12` [NCGC00162398], the viability at 3 µM was 95.6%.
Then `CN(CC(=O)Nc1cccc(F)c1)C(=O)c1ccc(-c2ccc(Cl)cc2)o1` [MLS001078811], with 105%; and `COc1ccc(Cl)cc1NC(=O)c1cc(-c2cc(C)ccc2O)[nH]n1` [MLS000779126], with 108%.
Then `O=C1N(c2ccccc2C(F)(F)F)OC1(Cc1ccccc1)c1ccccc1` (stereo not drawn) [MLS002206595], with 85%.
The figure for `COc1ccc(-n2nc3c(c2NC(=O)CCl)CSC3)cc1` [MLS001066697] is 98.9%.
In the case of `COc1ccccc1C1CC(c2ccccc2)=NN1C(=O)c1ccccc1` (stereo not drawn) [MLS001197331], the viability at 3 µM stood at 96.5%.
